According to patent US9834571B2, “Compounds for inhibiting cell proliferation in EGFR-driven cancers” (ARIAD Pharmaceuticals, Inc., priority 2012, dated 2017):

What was measured:
[1] = target: human EGFR (native sequence) (Homo sapiens, UniProt P00533); experiment: Kinase inhibitory activity against human EGFR (native sequence); type: biochemical; details: human EGFR native sequence; 10 μM ATP; read-out: IC50 for kinase inhibition, EGFR
Method in brief: (§1)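 Kinase inhibition was measured against native human EGFR and the L858R and L858R/T790M mutants. Compounds were run as 10-point curves in singlicate from a 3 μM top concentration, with 10 μM ATP.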

EGFR L858R = EGFR L858R (Homo sapiens, UniProt P00533, L858R); experiment: Kinase inhibitory activity against EGFR bearing the L858R mutation; type: biochemical; details: EGFR L858R; 10 μM ATP; read-out: IC50 for kinase inhibition, EGFR L858R
Method in brief: as §1

EGFR L858R/T790M = EGFR L858R/T790M (Homo sapiens, UniProt P00533, L858R/T790M); experiment: Kinase inhibitory activity against EGFR bearing the L858R/T790M double mutation; type: biochemical; details: EGFR L858R/T790M double mutation; 10 μM ATP; read-out: IC50 for kinase inhibition, EGFR L858R T790M
Method in brief: as §1

[2] = target: T1, BaF3 cells expressing the target EGFR mutations (Homo sapiens, UniProt P00533, T790M, cells depend on it, form not given); experiment: Antiproliferative activity (MTT) against BaF3 cells expressing the target EGFR mutations; type: cell-based; details: BAF3 EGFR DEL T790M PURO POOL cells, read-out: IC50, BAF3 EGFR DEL T790M PURO POOL
T1 construct: IC50, BAF3 EGFR DEL T790M PURO POOL; other: BAF3 EGFR DEL T790M PURO POOL cells, MTT; other: BAF3 EGFR DEL T790M PURO POOL cells; MTT
Method in brief: (§2)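 Viability by MTT colorimetry. Cells: BaF3 transfected with mutant EGFR, plus a wildtype-EGFR BaF3 counter-screen.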

[3] = target: T2, BaF3 cells expressing the target EGFR mutations (Homo sapiens, UniProt P00533, T790M/L858R, cells depend on it); experiment: as above; type: cell-based; details: BAF3 EGFR L858R-T790M PURO POOL cells, read-out: IC50, BAF3 EGFR L858R-T790M PURO POOL
T2 construct: IC50, BAF3 EGFR L858R-T790M PURO POOL; other: BAF3 EGFR L858R-T790M PURO POOL cells, MTT; IC50, BAF3 EGFR L858R-T790M PURO POOL; other: BAF3 EGFR L858R-T790M PURO POOL cells; MTT
Method in brief: as §2

[4] = system: BaF3 cells expressing wildtype EGFR; experiment: Antiproliferative activity (MTT) against control BaF3 cells expressing wildtype EGFR; type: cell-based; details: Mus musculus, BAF3 PARENTAL cells (control)
Method in brief: as §2

T2 sequence (P00533 whole entry T790M/L858R): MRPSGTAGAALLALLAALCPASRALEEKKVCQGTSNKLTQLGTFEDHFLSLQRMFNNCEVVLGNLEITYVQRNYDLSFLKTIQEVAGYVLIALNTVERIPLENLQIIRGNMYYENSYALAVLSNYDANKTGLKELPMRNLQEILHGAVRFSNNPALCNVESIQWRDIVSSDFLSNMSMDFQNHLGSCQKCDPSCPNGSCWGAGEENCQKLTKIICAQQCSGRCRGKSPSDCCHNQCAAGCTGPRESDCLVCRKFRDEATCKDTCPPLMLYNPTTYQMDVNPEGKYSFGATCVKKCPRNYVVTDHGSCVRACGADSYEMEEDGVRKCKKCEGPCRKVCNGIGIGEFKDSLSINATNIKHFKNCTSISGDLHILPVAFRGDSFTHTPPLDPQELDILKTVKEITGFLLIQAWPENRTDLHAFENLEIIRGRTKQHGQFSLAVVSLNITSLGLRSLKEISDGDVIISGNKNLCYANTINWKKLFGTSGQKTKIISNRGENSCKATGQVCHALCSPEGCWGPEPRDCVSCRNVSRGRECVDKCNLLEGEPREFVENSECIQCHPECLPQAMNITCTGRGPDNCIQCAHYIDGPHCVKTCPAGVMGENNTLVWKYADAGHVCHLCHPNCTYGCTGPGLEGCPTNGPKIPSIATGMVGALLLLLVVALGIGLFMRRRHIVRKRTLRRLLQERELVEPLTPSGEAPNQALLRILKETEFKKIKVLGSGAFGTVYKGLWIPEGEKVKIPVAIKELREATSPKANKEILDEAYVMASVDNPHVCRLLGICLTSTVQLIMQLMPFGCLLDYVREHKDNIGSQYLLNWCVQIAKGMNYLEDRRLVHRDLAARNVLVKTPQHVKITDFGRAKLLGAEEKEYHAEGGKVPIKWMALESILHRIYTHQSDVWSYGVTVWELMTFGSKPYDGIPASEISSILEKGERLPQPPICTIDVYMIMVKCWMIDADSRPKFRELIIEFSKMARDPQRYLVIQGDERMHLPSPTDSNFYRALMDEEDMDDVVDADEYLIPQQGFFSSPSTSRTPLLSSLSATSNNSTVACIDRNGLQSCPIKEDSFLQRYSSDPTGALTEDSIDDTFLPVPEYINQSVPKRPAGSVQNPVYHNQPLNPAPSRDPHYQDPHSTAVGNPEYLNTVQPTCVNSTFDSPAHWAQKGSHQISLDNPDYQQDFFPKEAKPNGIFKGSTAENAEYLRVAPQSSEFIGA
T1 sequence (P00533 with tags, fused parts or gaps DEL746-750/T790M, form open): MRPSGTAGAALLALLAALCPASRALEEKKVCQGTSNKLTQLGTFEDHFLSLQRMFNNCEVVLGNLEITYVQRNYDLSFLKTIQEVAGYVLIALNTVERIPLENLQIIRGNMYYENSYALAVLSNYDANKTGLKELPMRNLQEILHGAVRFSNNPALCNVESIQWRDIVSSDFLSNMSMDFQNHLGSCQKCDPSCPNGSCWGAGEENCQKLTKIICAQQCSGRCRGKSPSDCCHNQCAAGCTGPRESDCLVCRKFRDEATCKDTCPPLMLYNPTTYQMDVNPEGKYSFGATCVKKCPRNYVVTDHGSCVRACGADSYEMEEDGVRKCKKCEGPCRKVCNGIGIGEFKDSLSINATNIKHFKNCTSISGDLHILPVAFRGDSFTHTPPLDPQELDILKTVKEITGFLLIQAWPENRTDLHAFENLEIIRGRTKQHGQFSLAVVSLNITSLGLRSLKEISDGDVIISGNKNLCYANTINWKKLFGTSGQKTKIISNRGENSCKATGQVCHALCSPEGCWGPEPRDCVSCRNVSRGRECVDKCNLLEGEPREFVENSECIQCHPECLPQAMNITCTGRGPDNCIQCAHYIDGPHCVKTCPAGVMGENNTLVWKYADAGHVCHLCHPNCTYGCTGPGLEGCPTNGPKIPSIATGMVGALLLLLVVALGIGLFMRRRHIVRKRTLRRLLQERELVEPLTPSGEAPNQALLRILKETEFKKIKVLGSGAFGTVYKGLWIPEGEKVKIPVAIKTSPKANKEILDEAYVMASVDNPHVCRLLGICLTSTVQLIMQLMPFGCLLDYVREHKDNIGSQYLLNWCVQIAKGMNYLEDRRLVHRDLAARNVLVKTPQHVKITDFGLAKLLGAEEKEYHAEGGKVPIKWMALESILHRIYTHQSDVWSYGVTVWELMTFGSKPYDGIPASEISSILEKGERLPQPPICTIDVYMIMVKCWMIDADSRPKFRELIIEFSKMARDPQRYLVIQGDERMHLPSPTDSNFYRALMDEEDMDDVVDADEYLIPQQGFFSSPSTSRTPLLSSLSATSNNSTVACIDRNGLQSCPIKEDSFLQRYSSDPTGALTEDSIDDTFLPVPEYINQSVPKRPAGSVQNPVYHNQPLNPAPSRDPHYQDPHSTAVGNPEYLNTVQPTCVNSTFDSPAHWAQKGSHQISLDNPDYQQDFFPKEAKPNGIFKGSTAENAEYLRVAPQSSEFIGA
Chain of EGFR L858R (P00533 25-1210 L858R): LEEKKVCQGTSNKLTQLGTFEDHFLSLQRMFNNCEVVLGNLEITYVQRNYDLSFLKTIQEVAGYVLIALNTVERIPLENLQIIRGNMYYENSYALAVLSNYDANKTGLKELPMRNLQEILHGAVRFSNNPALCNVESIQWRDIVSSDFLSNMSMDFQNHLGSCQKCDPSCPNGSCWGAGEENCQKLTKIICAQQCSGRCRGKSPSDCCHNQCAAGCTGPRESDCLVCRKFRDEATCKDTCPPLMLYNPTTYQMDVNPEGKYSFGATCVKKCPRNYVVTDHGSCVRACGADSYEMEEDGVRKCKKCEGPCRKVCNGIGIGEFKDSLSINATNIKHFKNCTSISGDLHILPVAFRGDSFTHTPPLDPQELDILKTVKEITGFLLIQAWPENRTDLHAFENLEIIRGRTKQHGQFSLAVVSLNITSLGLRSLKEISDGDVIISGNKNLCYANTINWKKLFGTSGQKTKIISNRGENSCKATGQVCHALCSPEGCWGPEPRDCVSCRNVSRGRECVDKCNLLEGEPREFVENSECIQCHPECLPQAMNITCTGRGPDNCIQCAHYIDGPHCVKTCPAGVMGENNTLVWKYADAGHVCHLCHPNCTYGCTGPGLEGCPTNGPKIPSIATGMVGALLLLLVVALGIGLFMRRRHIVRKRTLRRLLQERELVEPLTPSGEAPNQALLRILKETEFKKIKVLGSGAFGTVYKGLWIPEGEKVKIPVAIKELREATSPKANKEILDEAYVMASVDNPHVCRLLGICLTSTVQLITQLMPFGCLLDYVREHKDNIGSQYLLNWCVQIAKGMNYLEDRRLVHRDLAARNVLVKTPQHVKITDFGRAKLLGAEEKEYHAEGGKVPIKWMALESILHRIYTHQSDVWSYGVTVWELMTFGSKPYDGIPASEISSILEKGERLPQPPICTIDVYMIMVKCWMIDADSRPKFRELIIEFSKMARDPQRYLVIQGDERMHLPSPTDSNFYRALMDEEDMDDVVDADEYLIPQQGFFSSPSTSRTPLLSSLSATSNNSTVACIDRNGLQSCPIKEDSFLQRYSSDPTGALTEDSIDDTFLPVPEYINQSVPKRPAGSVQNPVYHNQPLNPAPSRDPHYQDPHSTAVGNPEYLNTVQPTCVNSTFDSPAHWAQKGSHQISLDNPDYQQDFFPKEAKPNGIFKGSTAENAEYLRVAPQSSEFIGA
Chain of EGFR L858R/T790M (P00533 25-1210 T790M/L858R): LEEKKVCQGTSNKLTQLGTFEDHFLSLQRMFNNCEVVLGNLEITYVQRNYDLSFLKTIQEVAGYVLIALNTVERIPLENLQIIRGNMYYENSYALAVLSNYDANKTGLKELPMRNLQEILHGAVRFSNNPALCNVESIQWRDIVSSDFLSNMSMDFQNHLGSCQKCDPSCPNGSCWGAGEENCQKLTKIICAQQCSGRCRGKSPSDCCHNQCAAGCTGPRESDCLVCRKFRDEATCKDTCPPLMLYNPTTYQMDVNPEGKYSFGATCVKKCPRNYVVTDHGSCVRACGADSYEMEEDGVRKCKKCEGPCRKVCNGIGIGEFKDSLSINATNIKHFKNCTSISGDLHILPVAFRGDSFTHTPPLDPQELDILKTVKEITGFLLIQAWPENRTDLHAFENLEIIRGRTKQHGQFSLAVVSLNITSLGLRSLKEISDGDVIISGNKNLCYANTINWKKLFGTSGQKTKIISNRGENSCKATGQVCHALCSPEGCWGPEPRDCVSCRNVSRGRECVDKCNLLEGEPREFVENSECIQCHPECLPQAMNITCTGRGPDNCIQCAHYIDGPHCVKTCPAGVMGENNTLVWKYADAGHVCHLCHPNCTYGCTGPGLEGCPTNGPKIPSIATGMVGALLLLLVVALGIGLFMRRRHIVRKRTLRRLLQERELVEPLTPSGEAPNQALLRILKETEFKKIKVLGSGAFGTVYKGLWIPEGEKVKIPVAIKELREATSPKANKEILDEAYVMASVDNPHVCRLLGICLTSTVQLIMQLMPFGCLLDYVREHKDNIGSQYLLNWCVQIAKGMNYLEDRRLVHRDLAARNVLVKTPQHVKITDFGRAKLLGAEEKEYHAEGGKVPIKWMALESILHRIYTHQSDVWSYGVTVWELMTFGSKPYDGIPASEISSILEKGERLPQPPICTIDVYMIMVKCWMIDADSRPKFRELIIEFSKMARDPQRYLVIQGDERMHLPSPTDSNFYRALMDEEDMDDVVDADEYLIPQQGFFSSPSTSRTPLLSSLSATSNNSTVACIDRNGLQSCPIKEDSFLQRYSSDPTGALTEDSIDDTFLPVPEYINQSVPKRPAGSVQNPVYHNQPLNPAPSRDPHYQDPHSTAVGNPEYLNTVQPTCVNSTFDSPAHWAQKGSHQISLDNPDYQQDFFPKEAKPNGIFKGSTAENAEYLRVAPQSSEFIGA

Row | IC50 [1] [nM] | IC50 (EGFR L858R) [nM] | IC50 (EGFR L858R/T790M) [nM] | GI50 [2] [nM] | GI50 [3] [nM] | SMILES | IC50 [4] [nM]
1 | < 50 | < 50 | < 50 | 101 to 250 | ≥ 250 | C=C(CN1CCNC(=O)C1)C(=O)Nc1ccc(OC)c(Nc2ncc(Cl)c(Nc3ccccc3P(C)(C)=O)n2)c1 [Example 47, N-(3-((5-chloro-4-((2-(dimethylphosphoryl)phenyl)amino)pyrimidin-2-yl)amino)-4-methoxyphenyl)-2-((3-oxopiperazin-1-yl)methyl)acrylamide] | ≥ 250
2 | < 50 | < 50 | < 50 | < 50 | < 50 | C=C(CN1CCOCC1)C(=O)Nc1ccc(OC)c(Nc2ncc(Cl)c(Nc3ccccc3P(C)(C)=O)n2)c1 [Example 48, N-(3-((5-chloro-4-((2-(dimethylphosphoryl)phenyl)amino)pyrimidin-2-yl)amino)-4-methoxyphenyl)-2-(morpholinomethyl)acrylamide] | ≥ 250
3 | < 50 | < 50 | < 50 | < 50 | < 50 | C=C(CN1CCN(C)CC1)C(=O)Nc1ccc(OC)c(Nc2ncc(Cl)c(Nc3ccccc3P(C)(C)=O)n2)c1 [Example 49, N-(3-((5-chloro-4-((2-(dimethylphosphoryl)phenyl)amino)pyrimidin-2-yl)amino)-4-methoxyphenyl)-2-((4-methylpiperazin-1-yl)methyl)acrylamide] | ≥ 250
4 | 50 to 100 | < 50 | < 50 | < 50 | < 50 | C=C(CN1CCN(C(C)C)CC1)C(=O)Nc1ccc(OC)c(Nc2ncc(Cl)c(Nc3ccccc3P(C)(C)=O)n2)c1 [Example 50, N-(3-((5-chloro-4-((2-(dimethylphosphoryl)phenyl)amino)pyrimidin-2-yl)amino)-4-methoxyphenyl)-2-((4-isopropylpiperazin-1-yl)methyl)acrylamide] | ≥ 250
5 | < 50 | < 50 | < 50 | < 50 | < 50 | C=C(CN1CCC(N2CCOCC2)CC1)C(=O)Nc1ccc(OC)c(Nc2ncc(Cl)c(Nc3ccccc3P(C)(C)=O)n2)c1 [Example 51, N-(3-((5-chloro-4-((2-(dimethylphosphoryl)phenyl)amino)pyrimidin-2-yl)amino)-4-methoxyphenyl)-2-((4-morpholinopiperidin-1-yl)methyl)acrylamide] | ≥ 250
6 | < 50 | < 50 | < 50 | < 50 | < 50 | C=C(CN1CCN(CCO)CC1)C(=O)Nc1ccc(OC)c(Nc2ncc(Cl)c(Nc3ccccc3P(C)(C)=O)n2)c1 [Example 52, N-(3-((5-chloro-4-((2-(dimethylphosphoryl)phenyl)amino)pyrimidin-2-yl)amino)-4-methoxyphenyl)-2-((4-(2-hydroxyethyl)piperazin-1-yl)methyl)acrylamide] | ≥ 250
7 | < 50 | < 50 | < 50 | < 50 | < 50 | C=C(CN1CCC(O)C1)C(=O)Nc1ccc(OC)c(Nc2ncc(Cl)c(Nc3ccccc3P(C)(C)=O)n2)c1 (stereo not drawn) [Example 53, N-(3-((5-chloro-4-((2-(dimethylphosphoryl)phenyl)amino)pyrimidin-2-yl)amino)-4-methoxyphenyl)-2-((3-hydroxypyrrolidin-1-yl)methyl)acrylamide] | ≥ 250
8 | < 50 | < 50 | < 50 | < 50 | 50 to 100 | C=CC(=O)Nc1cc(Nc2ncc(Cl)c(Nc3ccccc3P(C)(C)=O)n2)c(OC)cc1CN1CCN(C)CC1 [Example 55, N-(5-((5-chloro-4-((2-(dimethylphosphoryl)phenyl)amino)pyrimidin-2-yl)amino)-4-methoxy-2-((4-methylpiperazin-1-yl)methyl)phenyl)acrylamide] | ≥ 250
9 | 101 to 250 | < 50 | < 50 | ≥ 250 | ≥ 250 | C=CC(=O)Nc1cc(Nc2ncc(Cl)c(Nc3ccccc3P(C)(C)=O)n2)c(OC)cc1C(=O)N1CCN(C)CC1 [Example 56, N-(5-((5-chloro-4-((2-(dimethylphosphoryl)phenyl)amino)pyrimidin-2-yl)amino)-4-methoxy-2-(4-methylpiperazine-1-carbonyl)phenyl)acrylamide] | ≥ 250
10 | < 50 | < 50 | < 50 | ≥ 250 | ≥ 250 | C=CC(=O)Nc1cc(Nc2ncc(Cl)c(Nc3ccccc3P(C)(C)=O)n2)c(OC)cc1N1CCC(N)C1 (stereo not drawn) [Example 57, N-(2-(3-aminopyrrolidin-1-yl)-5-((5-chloro-4-((2-(dimethylphosphoryl)phenyl)amino)pyrimidin-2-yl)amino)-4-methoxyphenyl)acrylamide] | ≥ 250
11 | < 50 | < 50 | < 50 | ≥ 250 | ≥ 250 | COc1ccc(NC(=O)/C=C/C(=O)NCCN(C)C)cc1Nc1ncc(Cl)c(Nc2ccccc2P(C)(C)=O)n1 [Example 58, N1-(3-((5-chloro-4-((2-(dimethylphosphoryl)phenyl)amino)pyrimidin-2-yl)amino)-4-methoxyphenyl)-N4-(2-(dimethylamino)ethyl)fumaramide] | ≥ 250
12 | < 50 | < 50 | < 50 | 101 to 250 | ≥ 250 | COc1ccc(NC(=O)/C=C/C(=O)N2CCN(C)CC2)cc1Nc1ncc(Cl)c(Nc2ccccc2P(C)(C)=O)n1 [Example 59, (E)—N-(3-((5-chloro-4-((2-(dimethylphosphoryl)phenyl)amino)pyrimidin-2-yl)amino)-4-methoxyphenyl)-4-(4-methylpiperazin-1-yl)-4-oxobut-2-enamide] | ≥ 250
13 | ≥ 250 | 50 to 100 | 101 to 250 | ≥ 250 | ≥ 250 | COc1ccc(NC(=O)/C=C/C(=O)N(C)C)cc1Nc1ncc(Cl)c(Nc2ccccc2P(C)(C)=O)n1 [Example 60, N1-(3-((5-chloro-4-((2-(dimethylphosphoryl)phenyl)amino)pyrimidin-2-yl)amino)-4-methoxyphenyl)-N4,N4-dimethylfumaramide] | ≥ 250
14 | ≥ 250 | ≥ 250 | 101 to 250 | ≥ 250 | ≥ 250 | COc1ccc(NC(=O)/C=C\C(=O)O)cc1Nc1ncc(Cl)c(Nc2ccccc2P(C)(C)=O)n1 [Example 61, (Z)-4-((3-((5-chloro-4-((2-(dimethylphosphoryl)phenyl)amino)pyrimidin-2-yl)amino)-4-methoxyphenyl)amino)-4-oxobut-2-enoic acid] | ≥ 250
15 | ≥ 250 | ≥ 250 | ≥ 250 | ≥ 250 | ≥ 250 | COc1ccc(NC(=O)/C=C\C(=O)N(C)C)cc1Nc1ncc(Cl)c(Nc2ccccc2P(C)(C)=O)n1 [Example 62, N1-(3-((5-chloro-4-((2-(dimethylphosphoryl)phenyl)amino)pyrimidin-2-yl)amino)-4-methoxyphenyl)-N4,N4-dimethylmaleamide] | ≥ 250
16 | ≥ 250 | 101 to 250 | ≥ 250 | ≥ 250 | ≥ 250 | COc1ccc(NC(=O)/C=C\C(=O)N2CCN(C)CC2)cc1Nc1ncc(Cl)c(Nc2ccccc2P(C)(C)=O)n1 [Example 63, (Z)-N-(3-((5-chloro-4-((2-(dimethylphosphoryl)phenyl)amino)pyrimidin-2-yl)amino)-4-methoxyphenyl)-4-(4-methylpiperazin-1-yl)-4-oxobut-2-enamide] | ≥ 250
17 | ≥ 250 | < 50 | < 50 | ≥ 250 | ≥ 250 | COc1ccc(NC(=O)/C=C\C(=O)NCCN(C)C)cc1Nc1ncc(Cl)c(Nc2ccccc2P(C)(C)=O)n1 [Example 64, N1-(3-((5-chloro-4-((2-(dimethylphosphoryl)phenyl)amino)pyrimidin-2-yl)amino)-4-methoxyphenyl)-N4-(2-(dimethylamino)ethyl)maleamide] | ≥ 250
